Measurements from patent US7084155B2, “Chemokine receptor binding heterocyclic compounds” (AnorMED, priority 2000, dated 2006).

Tests used:
Assay type in all cases: cell-based
HIV-1 NL4.3 or IIIB = assay: Inhibition of HIV-1 (NL4.3 or IIIB, CXCR4 using) replication in MT-4 cells, MTT viability; conditions: Human immunodeficiency virus 1, IIIB, MT4, concentration protecting 50% of virus-infected cells against viral cytopathicity
Experimental: Assay for Inhibition of HIV-1 (NL4.3) Replication in MT-4 Cells Inhibition of HIV-1 NL4.3 (or IIIB, CXCR4 using) replication assays were performed as previously described (Bridger et al. J. Med. Chem. 1999, 42, 3971-3981; De […] et al. Proc. Natl. Acad. Sci, 1992, 89, 5286-5290; De […] et al. Antimicrob. Agents Chemother. 1994, 38, 668-674; Bridger et al. J. Med. Chem. 1995, 38, 366-378; Schols et al. J. Exp. Med., 1997, 186, 1383-1388). Anti-HIV activity and cytotoxicity measurements were carried out in parallel. They were based on the viability of MT-4 cells that had been infected with HIV in the presence of various concentrations of the test compounds. After the MT-4 cells were allowed to proliferate for 5 days, the number of viable cells was quantified by a tetrazolium-based colorimetric 3-(4,5-dimethylthiazol-2-yl)-2,5-diphenyltetrazolium bromide (MTT) procedure in 96-well microtrays. In all of these assays, viral input (viral multiplicity of infection, MOI) was 0.01, or 100 times the 50% cell culture infective dose (CCID50). The EC50 was defined as the concentration required to protect 50% of the virus-infected cells against viral cytopathicity.

HIV-1 BaL = assay: Inhibition of HIV-1 BaL (CCR5 using) replication in PHA-stimulated PBMC's, viral p24 antigen expression; conditions: Human immunodeficiency virus 1, BAL
[1] = test system: SDF-1 induced Ca flux in SUP-T1 cells; assay: Inhibition of chemokine (SDF-1) induced Ca flux measured on a FLIPR; conditions: Homo sapiens
Experimental: Inhibition of Chemokine Induced Ca Flux Measured on a FLIPR (Molecular Devices) Loading dye: Fluo-3, AM (Molecular Probes F-1241) is dissolved in anhydrous DMSO and stored frozen in aliquots. To increase the solubility of the dye in the loading medium, 10% (w/v) pluronic acid (Molecular Probes F-127) is added to the Fluo-3 stock solution immediately before use. HBSS+20 mM Hepes buffer+0.2% BSA, pH 7.4. HBSS 10× [(w/o phenol red and sodium bicarbonate (Gibco 14 065–049)]; Hepes buffer 1M (Gibco 15 630–056), BSA (Sigma A3675). The flux buffer is vacuum-filtered and stored refrigerated for a maximum of 5 days. Before use in the experiment, the buffer is warmed at 37° C. in a waterbath. The test compounds were diluted in flux buffer to the desired concentration and added to 4 wells of a black microplate (4 parallel measurements per compound). The following control wells were used: 100% response control (no inhibition), flux buffer was added; 100% inhibition control: chemokine was added at 5-times the concentration required to induce a Ca flux. The chemokines are diluted in flux buffer to concentrations that are 4-fold higher than the desired concentrations required for stimulation of the cells (i.e. 2.5 nM for SDF-1[…] and 0.6 nM for RANTES). The chemokines were added to untreated 96-well Sero well compound plates (International Medical, Sterilin code 611F96). In the negative control well's (baseline monitoring), flux buffer is added instead of chemokine. As a positive control to check for dye loading efficiency, 20 μM digitonin (final concentration) was also included. The agonist plate was incubated in the FLIPR (37° C.) for 15–30 min. Cell Loading Protocol for Measuring Inhibition of SDF-1[…] Induced Ca Flux in SUP-T1 Cells. SUP-T1 cells were centrifuged at room temperature (RT) and re-suspended in loading medium (RPMI-1640 containing 2% FBS and 4 μM Fluo-3, AM). The cells were incubate at room temperature for 45 min. then washed twice in flux buffer then incubated in flux buffer at room temperature for 10 min. The cells were centrifuged and re-suspended in flux buffer at a density of 3×10^6 cells per mL. A 100 uL aliquot of the cell suspension (3×10^5 cells) was added to each well of a black microplate (Costar 3603), which already contains 50 uL of a solution of the test compound (at concentrations that are 3-fold higher than the desired final compound concentrations). The microplate is then gently centrifuged at room temperature. Homogeneous spreading of the cells on the bottom of the microplate wells was then confirmed with a microscope and the microplate was incubated in the FLIPR (37° C.) for 10 min. prior to testing. Fluorescence Measurements as a Function of Time on the FLIPR The FLIPR settings (camera exposure time and laser power) are adjusted to obtain initial fluorescence values between 8,000 and 10,000 units. After monitoring a 20 second-baseline, the agonist (chemokine) (50 uL) is added by automatic pipettor with black pipette tips. Fluorescence is measured simultaneously in all wells of the microplate every 2 seconds (first 2 min) and thereafter every 6 seconds (additional 2 min). The average ca-flux measured in each set of 4 identical wells (one test compound) was calculated by the FLIPR software.

| SMILES | EC50 (HIV-1 NL4.3 or IIIB) [µg/mL] | EC50 (HIV-1 BaL) [µg/mL] | inhibition at 20 µg/mL [1] [%] |
| --- | --- | --- | --- |
| c1ccc(N[C@H]2CCCC[C@H]2NCc2ccc(CNCc3ccccn3)cc2)cc1 (relative stereo) [Example 132, N-(2-pyridinylmethyl)-N′-[cis-2-(N-phenylamino)cyclohexyl]-1,4-benzenedimethanamine] | < 20 | < 20 | > 20 |
| c1ccc(CNCc2ccc(CN[C@H]3CCCC[C@@H]3NCc3ccccn3)cc2)nc1 (relative stereo) [Example 133, N-(2-pyridinylmethyl)-N′-[trans-2-[(pyridin-2-ylmethyl)amino]cyclohexyl]-1,4-benzenedimethanamine] | < 20 | < 20 | > 20 |
| c1ccc(-c2ccc(-c3cnc(CN(Cc4ccc(CNCc5ccccn5)cc4)C4CCCc5cccnc54)[nH]3)cc2)cc1 (stereo not drawn) [Example 31, N-(2-Pyridinylmethyl)-N′-(4-(4-biphenyl)-1H-imidazol-2-ylmethyl)-N′-(5,6,7,8-tetrahydro-8-quinolinyl)-1,4-benzenedimethanamine] | < 20 | < 20 | – |
| c1ccc(CNCc2ccc(CN(Cc3ncc(-c4ccc5c(c4)CCCC5)[nH]3)C3CCCc4cccnc43)cc2)nc1 (stereo not drawn) [Example 32, N-(2-Pyridinylmethyl)-N′-[5-(5,6,7,8-tetrahydronaphthalen-2-yl)-1H-imidazol-2-ylmethyl]-N′-(5,6,7,8-tetrahydro-8-quinolinyl)-1,4-benzenedimethanamine] | < 20 | < 20 | – |
| COc1c(Br)cccc1-c1cnc(CN(Cc2ccc(CNCc3ccccn3)cc2)C2CCCc3cccnc32)[nH]1 (stereo not drawn) [Example 33, N-(2-Pyridinylmethyl)-N′-[5-(3-Bromo-2-methoxy-phenyl)-1H-imidazol-2-ylmethyl]-N′-(5,6,7,8-tetrahydro-8-quinolinyl)-1,4-benzenedimethanamine] | < 20 | < 20 | – |
| CC1(N(Cc2ccc(CNCc3ccccn3)cc2)Cc2nc3ccccc3[nH]2)CCCc2cccnc21 (stereo not drawn) [Example 42, N-(2-pyridinylmethyl)-N′-(1H-benzimidazol-2-ylmethyl)-N′-(8-methyl-5,6,7,8-tetrahydro-8-quinolinyl)-1,4-benzenedimethanamine] | < 20 | – | > 20 |
| COc1ccnc2c1CCCC2N(Cc1ccc(CNCc2ccccn2)cc1)Cc1nc2ccccc2[nH]1 (stereo not drawn) [Example 44, N-(2-pyridinylmethyl)-N′-[1H-benzimidazol-2-ylmethyl]-N′-(4-methoxy-5,6,7,8-tetrahydro-8-quinolinyl)-1,4-benzenedimethanamine] | < 20 | – | > 20 |
| CCCOc1cccnc1CNCc1ccc(CN(Cc2nc3ccccc3[nH]2)C2CCCc3cccnc32)cc1 (stereo not drawn) [Example 59, N-(3-propoxy-2-pyridinylmethyl)-N′-(1H-benzimidazol-2-ylmethyl)-N′-(5,6,7,8-tetrahydro-8-quinolinyl)-1,4-benzenedimethanamine] | < 20 | – | > 20 |
| c1cnc2c(c1)CCCC2NCc1ccc(CN(Cc2nc3ccccc3[nH]2)C2CCCc3cccnc32)cc1 (stereo not drawn) [Example 60, N-(5,6,7,8-tetrahydro-8-quinolinyl)-N′-(1H-benzimidazol-2-ylmethyl)-N′-(5,6,7,8-tetrahydro-8-quinolinyl)-1,4-benzenedimethanamine] | < 20 | – | > 20 |
| COc1cccnc1CNCc1ccc(CN(Cc2nc3ccccc3[nH]2)C2CCCc3cccnc32)cc1 (stereo not drawn) [Example 65, N-(3-methoxy-2-pyridinylmethyl)-N′-(1H-benzimidazol-2-ylmethyl)-N′-(5,6,7,8-tetrahydro-8-quinolinyl)-1,4-benzenedimethanamine] | < 20 | – | > 20 |

The next lines start with results.

| EC50 (HIV-1 NL4.3 or IIIB) [µg/mL] | EC50 (HIV-1 BaL) [µg/mL] | SMILES | inhibition at 20 µg/mL [1] [%] |
| --- | --- | --- | --- |
| < 20 | < 20 | c1ccc(CNCc2ccc(CN(Cc3nc4ccccc4o3)C3CCCc4cccnc43)cc2)nc1 (stereo not drawn) [Example 8, N-(2-pyridinylmethyl)-N′-(benzoxazol-2-ylmethyl)-N′-(5,6,7,8-tetrahydro-8-quinolinyl)-1,4-benzenedimethanamine] | – |
| < 20 | < 20 | Cc1ccc2nc(CN(Cc3ccc(CNCc4ccccn4)cc3)C3CCCc4cccnc43)oc2c1 (stereo not drawn) [Example 17, N-(2-pyridinylmethyl)-N′-(6-methylbenzoxazol-2-ylmethyl)-N′-(5,6,7,8-tetrahydro-8-quinolinyl)-1,4-benzenedimethanamine] | – |
| < 20 | < 20 | c1ccc(CNCc2ccc(CN(Cc3cc4ccccc4[nH]3)C3CCCc4cccnc43)cc2)nc1 (stereo not drawn) [Example 19, N-(2-pyridinylmethyl)-N′-(indol-2-ylmethyl)-N′-(5,6,7,8-tetrahydro-8-quinolinyl)-1,4-benzenedimethanamine] | – |
| – | < 20 | c1ccc(CNCc2ccc(CN(CCn3cnc4ccccc43)C3CCCc4cccnc43)cc2)nc1 (stereo not drawn) [Example 37, N-(2-pyridinylmethyl)-N′-[2-(benzimidazol-1-yl)eth-1-yl]-N′-(5,6,7,8-tetrahydro-8-quinolinyl)-1,4-benzenedimethanamine] | – |
| < 20 | – | c1ccc(CNCc2ccc(CN(CCCn3cnc4ccccc43)C3CCCc4cccnc43)cc2)nc1 (stereo not drawn) [Example 38, N-(2-pyridinylmethyl)-N′-[3-(benzimidazol-1-yl)prop-1-yl]-N′-(5,6,7,8-tetrahydro-8-quinolinyl)-1,4-benzenedimethanamine] | > 20 |
| < 20 | – | c1ccc(CNCc2ccc(CN(Cc3nc4ccccc4[nH]3)C3CCOc4cccnc43)cc2)nc1 (stereo not drawn) [Example 40, N-(2-pyridinylmethyl)-N′-(1-H-benzimidazol-2-ylmethyl)-N′-(3,4-dihydro-2H-pyrano[3,2-b]pyridinyl)-1,4-benzenedimethanamine] | > 20 |
| < 20 | – | Cc1cccnc1CNCc1ccc(CN(Cc2nc3ccccc3[nH]2)C2CCCc3cccnc32)cc1 (stereo not drawn) [Example 56, N-(3-methyl-2-pyridinylmethyl)-N′-(1H-benzimidazol-2-ylmethyl)-N′-(5,6,7,8-tetrahydro-8-quinolinyl)-1,4-benzenedimethanamine] | > 20 |
| < 20 | – | Brc1cccc(CNCc2ccc(CN(Cc3nc4ccccc4[nH]3)C3CCCc4cccnc43)cc2)n1 (stereo not drawn) [Example 57, N-(6-bromo-2-pyridinylmethyl)-N′-(1H-benzimidazol-2-ylmethyl)-N′-(5,6,7,8-tetrahydro-8-quinolinyl)-1,4-benzenedimethanamine] | > 20 |
| < 20 | – | Oc1cccc(CNCc2ccc(CN(Cc3nc4ccccc4[nH]3)C3CCCc4cccnc43)cc2)n1 (stereo not drawn) [Example 58, N-(6-hydroxy-2-pyridinylmethyl)-N′-(1H-benzimidazol-2-ylmethyl)-N′-(5,6,7,8-tetrahydro-8-quinolinyl)-1,4-benzenedimethanamine] | > 20 |
